Reference: US20120178124A1, “STEROL SIDE CHAIN-CLEAVING ENZYME PROTEIN AND USE THEREOF” (MITSUBISHI CHEMICAL CORPORATION, priority 2009, published 2012)

T1: CYP11A (Homo sapiens, UniProt P05108)
T1 construct: A 1.45-kb CYP11A1 gene fragment amplified as a result of the above-described reaction; expressed in transfected cells; host or cells: Escherichia coli BL21(DE3), plasmid pCYP11A-ARX (strain BL21CYP11)
T1 sequence (P05108 40-521): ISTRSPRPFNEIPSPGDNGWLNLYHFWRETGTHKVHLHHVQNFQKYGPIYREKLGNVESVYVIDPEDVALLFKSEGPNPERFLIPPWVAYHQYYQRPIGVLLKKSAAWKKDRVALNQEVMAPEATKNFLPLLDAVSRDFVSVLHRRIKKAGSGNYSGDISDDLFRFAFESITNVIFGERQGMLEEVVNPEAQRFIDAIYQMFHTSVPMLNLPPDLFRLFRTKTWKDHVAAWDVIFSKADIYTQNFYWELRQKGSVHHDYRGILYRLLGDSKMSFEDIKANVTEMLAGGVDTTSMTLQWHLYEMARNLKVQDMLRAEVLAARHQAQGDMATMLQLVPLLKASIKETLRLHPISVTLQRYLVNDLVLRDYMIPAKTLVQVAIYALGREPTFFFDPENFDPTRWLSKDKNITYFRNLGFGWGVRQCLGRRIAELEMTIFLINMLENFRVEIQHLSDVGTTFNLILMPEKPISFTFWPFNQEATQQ

B1: Sphingomonas subterranea NBRC16086 P450scc CYPSS204A (CYPSS), wild type, SEQ ID NO: 2 (Novosphingobium subterraneum) (protein)
chain: MASAAAGADGLPLLDGGVPLLGHLAQFFRDPVSVLKRGYRSKGRLFAMNFMGQRMNVMLGPEHNRFFFEETDKLLSIRESMPFFLKMFSPEFYSFAEMDEYLRQRAIIMPRFKAASMKQYVPVMVEESLNLVERLGEEGEFDLIPTLGPVVMDIAAHSFMGREFHEKLGHEFFELFRDFSGGMEFVLPLWLPTPKMVKSQRAKKKLHAILQSWIDKRRASPLDPPDFFQTMIETKYPDGRAVPDEIIRHLILLLVWAGHETTAGQVSWALADLLQNPGYQQVLREEVASLLGGSDGRALGWEQAVAMEKMDLALRETERLHPVAYMLSRKASADIERDGYRIRKGEFVLLAPSVSHRMEETFRNADAYDPERFNPQNPDAQIESNSLIGFGGGVHRCAGVNFARMEMKVLVAILLQNFDMELIDEVRPIAGASTYWPAQPCRVRYKRRKLDGAGGSADVAALAKAAGCPAHA

Key:
[1] = target: T1, CYP11A; assay: Conversion reaction of substrates by CYP11A-expressing Escherichia coli; type: cell-based
Procedure: The Escherichia coli expression strain BP215 was inoculated into 2 ml of an M9 mix medium (Na2HPO4: 0.68%, KH2PO4: 0.3%, NaCl: 0.05%, NH4C;: 0.01%, Casamino acid: 1%, D-Glucose: 0.4%, CaCl2: 0.1 mM, MgCl2: 1 mM, Thiamine: 0.002%, FeSO4: 0.1 mM, Carbenicillin: 0.005%), and it was then subjected to shaking culture at 30° C. for 17 hours, so as to obtain pre-culture solution. 0.25 ml of this pre-culture solution was inoculated into 25 ml of the main culture medium (Na2HPO4: 0.68%, KH2PO4: 0.3%, NaCl: 0.05%, NH4Cl: 0.01%, Casamino acid: 1%, CaCl2: 0.1 mM, MgCl2: 1 mM, Thiamine: 0.002%, FeSO4: 0.1 mM, Carbenicillin: 0.005%, Overnight Express™ solution: 7%, 5-Aminolevlic acid: 0.008%) using Overnight Express™ Autoinduction System (Novagen Cat. No. 71300-4), and it was then subjected to shaking culture at 25° C. for 24 hours. 5 ml of the obtained main culture solution was centrifuged (3500 rpm, 10 minutes) to obtain cell mass, and 1 ml of CV2 buffer (50 mM (pH) potassium phosphate buffer containing glycerol: 2%, carbenicillin: 0.005%, and isopropyl β-D-1-thiogalactopyranoside: 0.1 mM) was added to the obtained cell mass. Thereafter, 0.01 ml of the methanol solution of 1% 4-cholesten-3-one and 0.02 ml of an aqueous solution of 25% methyl-β-cyclodextrin were added to the mixed solution, and the obtained mixture was then shaken at 28° C. for 5 hours for the reaction. After completion of the reaction, 4 ml of methanol was added to the reaction solution, and they were then fully mixed. The obtained mixture was centrifuged, and the upper layer was then analyzed by HPLC.
A commercially available human testis cDNA (Origene Technologies, Inc.) was used as a template, and a CYP11A1 gene was amplified by PCR using a primer CYP11A-1F (SEQ ID NO: 19) and a primer CYP11A-2R (SEQ ID NO: 20), and also using KOD plus polymerase (TOYOBO Co., Ltd.). The temperature conditions applied during the PCR were 94° C./3 min, 30 cycles of (94° C./30 sec, 55° C./60 sec, and 72° C./90sec), and 72° C./5 min.
A 1.45-kb CYP11A1 gene fragment amplified as a result of the above-described reaction was purified using QIAquick PCR purification Kit (manufactured by QIAGEN), and it was then digested with Nde I and Spe I. Thereafter, the digest was ligated to Escherichia coli expression vector pT7NS-camAB, using T4 DNA ligase, and Escherichia coli DH5α was then transformed with the obtained expression vector, so as to construct a plasmid pCYP11A-camAB. Subsequently, using T4 DNA ligase, the previously prepared bovine-derived adrenodoxin reductase protein-adrenodoxin gene (adr-adx) fragment was inserted into and ligated to each of the Spe I and Bam HI sites of the above-described plasmid, and Escherichia coli DH5a was then transformed with the obtained plasmid, so as to construct plasmid pCYP11A-ARX. Thereafter, Escherichia coli BL21(DE3) was transformed with the thus constructed plasmid, and the obtained cell strain was named as BL21CYP11. The used adx-adr fragment was amplified by PCR with a plasmid pKARX (Sawada et. al. Eur. J. Biochem. 265, 950-956,1999) as a template, using primer bAdxR-1F (SEQ ID NO: 21) and primer bAdx-2R (SEQ ID NO: 22), and also using KOD plus polymerase (manufactured by TOYOBO Co., Ltd.). The temperature condition applied during the PCR were 94° C./3 min, 25 cycles of (94° C./30 sec, 60° C./30 sec, and 72° C./120sec), and 72° C./5 min.
Each substrate was subjected to the same reaction as that of Example 6, separately, and the reaction solution was then subjected to liquid separation using 1 ml of ethyl acetate. The reaction product and the substrate were extracted, and were then analyzed by HPLC.

[2] = substrate: CC(C)CCC[C@@H](C)[C@H]1CC[C@H]2[C@@H]3CCC4=CC(=O)CC[C@]4(C)[C@H]3CC[C@]12C; assay: purified protein, by the assay type; settings: other: 4-cholesten-3-one 0.1 to 500 μM, pH 7.5, 15° C., 60 minutes, Lineweaver-Burk plot

| Molecule | added substrate remained ([1]; same reaction as Example 6) [%] | Conversion rate ([1]; same reaction as Example 6 (28° C., 5 hours)) [%] | Km [2] [µM] |
| --- | --- | --- | --- |
| CC(C)CCC[C@@H](C)[C@H]1CC[C@H]2[C@@H]3CCC4=CC(=O)CC[C@]4(C)[C@H]3CC[C@]12C [4-cholesten-3-one] | 100 | 0 | – |
| B1 | – | – | 1.1 |
